For nine compounds, EC50 results are on record in US12594276B2, “Inhibitors of human immunodeficiency virus replication” (ViiV Healthcare UK (No.5) Limited, priority 2024, dated 2026).

Each structure is given as a SMILES string. pEC50: −log10 of the molar value.

In the assay the test system is recombinant NL4-3 virus (nef section replaced with Renilla luciferase gene) in MT-2 cells. The experiment in a line: HIV cell culture assay (antiviral activity, luciferase readout). Type of assay: cell-based. The settings on record: Renilla, NL43, MT-2 cells infected for 4-5 days with recombinant NL4-3 Renilla luciferase virus. How it is done: HIV cell culture assay—MT-2 cells, 293T cells and the proviral DNA clone of NL4-3 virus were obtained from the NIH AIDS Research and Reference Reagent Program. MT-2 cells were propagated in RPMI 1640 media supplemented with 10% heat inactivated fetal bovine serum (FBS), […]. The 293T cells were propagated in DMEM media supplemented with 10% heat inactivated FBS, […]. A recombinant NL4-3 proviral clone, in which a section of the nef gene was replaced with the Renilla luciferase gene, was used to make the reference virus used in these studies. The recombinant virus was prepared through transfection of the recombinant NL4-3 proviral clone into 293T cells using Transit-293 Transfection Reagent from Mirus Bio LLC (Madison, WI). Supernatant was harvested after 2-3 days and the amount of virus present was titered in MT-2 cells using luciferase enzyme activity as a marker by measuring luciferase enzyme activity. Luciferase was quantitated using the EnduRen Live Cell Substrate from Promega (Madison, WI). Antiviral activities of compounds toward the recombinant virus were quantified by measuring luciferase activity in MT-2 cells infected for 4-5 days with the recombinant virus in the presence of serial dilutions of the compound.
The 50% effective concentration (EC50) was calculated by using the exponential form of the median effect equation where (Fa)=1/[1+(ED50/drug conc.)m](Johnson V A, Byington R T. Infectivity Assay. In Techniques in HIV Research. ed. Aldovini A, Walker B D. 71-76. New York: Stockton Press. 1990). Curve fitting and analysis were performed with ActivityBase XE Runner software version 9.1.0.4 using model 203 (ID Business Solutions, LTD, Guildford, UK).
In the case of `Cc1cc(C2CCC(F)(F)CC2)nc2nc([C@H](Cc3cc(F)cc(F)c3)NC(=O)Cn3nc(C4CC4)c4c3C[C@H]3C[C@@H]43)n(-c3ccc(Cl)c4c(NS(C)(=O)=O)nn(CCN5CC(C)(C)OC(C)(C)C5)c34)c(=O)c12` (atropisomer, axis not shown; (P)) [Example 606, N-[(1S)-1-[(3P)-3-{4-chloro-3-methanesulfonamido-1-[2-(2,2,6,6-tetramethylmorpholin-4-yl)ethyl]-1H-indazol-7-yl}-7-(4,4-difluorocyclohexyl)-5-methyl-4-oxo-3H,4H-pyrido[2,3-d]pyrimidin-2-yl]-2-(3,5-difluorophenyl)ethyl]-2-[(2R,4R)-9-cyclopropyl-7,8-diazatricyclo[4.3.0.0^2,^4]nona-1(6),8-dien-7-yl]acetamide], the pEC50 (in general, the negative decadic logarithm of the EC50, by convention in mol/L) was 10.59.

Take `Cc1cc(C2CCC(F)(F)CC2)nc2nc([C@H](Cc3cc(F)cc(F)c3)NC(=O)Cn3nc(C(F)(F)F)c4c3C(F)(F)[C@@H]3C[C@H]43)n(-c3ccc(Cl)c4c(NS(C)(=O)=O)nn(CCN5CC(C)(C)OC(C)(C)C5)c34)c(=O)c12` (atropisomer, axis not shown; (P)) [Example 609, N-[(1S)-1-[(3P)-3-{4-chloro-3-methanesulfonamido-1-[2-(2,2,6,6-tetramethylmorpholin-4-yl)ethyl]-1H-indazol-7-yl}-7-(4,4-difluorocyclohexyl)-5-methyl-4-oxo-3H,4H-pyrido[2,3-d]pyrimidin-2-yl]-2-(3,5-difluorophenyl)ethyl]-2-[(2S,4R)-5,5-difluoro-9-(trifluoromethyl)-7,8-diazatricyclo[4.3.0.0^2,^4]nona-1(6),8-dien-7-yl]acetamide]: the pEC50 was 10.48.

As for `Cc1cc(C2CCC(F)(F)CC2)nc2nc([C@H](Cc3cc(F)cc(F)c3)NC(=O)Cn3nc(C4CC4)c4c3C(F)(F)[C@@H]3C[C@H]43)n(-c3ccc(Cl)c4c(NS(C)(=O)=O)nn(CCN5CC(C)(C)OC(C)(C)C5)c34)c(=O)c12` (atropisomer, axis not shown; (P)) [Example 610, N-[(1S)-1-[(3P)-3-{4-chloro-3-methanesulfonamido-1-[2-(2,2,6,6-tetramethylmorpholin-4-yl)ethyl]-1H-indazol-7-yl}-7-(4,4-difluorocyclohexyl)-5-methyl-4-oxo-3H,4H-pyrido[2,3-d]pyrimidin-2-yl]-2-(3,5-difluorophenyl)ethyl]-2-[(2S,4R)-9-cyclopropyl-5,5-difluoro-7,8-diazatricyclo[4.3.0.0^2,^4]nona-1(6),8-dien-7-yl]acetamide], the pEC50 was 10.77.

With `Cc1cc(C2CCC(F)(F)CC2)nc2nc([C@H](Cc3cc(F)cc(F)c3)NC(=O)Cn3nc(C(F)F)c4c3C[C@@H]3C[C@H]43)n(-c3ccc(Cl)c4c(NS(C)(=O)=O)nn(CCN5CC(C)(C)OC(C)(C)C5)c34)c(=O)c12` (atropisomer, axis not shown; (P)) [Example 611, N-[(1S)-1-[(3P)-3-{4-chloro-3-methanesulfonamido-1-[2-(2,2,6,6-tetramethylmorpholin-4-yl)ethyl]-1H-indazol-7-yl}-7-(4,4-difluorocyclohexyl)-5-methyl-4-oxo-3H,4H-pyrido[2,3-d]pyrimidin-2-yl]-2-(3,5-difluorophenyl)ethyl]-2-[(2S,4S)-9-(difluoromethyl)-7,8-diazatricyclo[4.3.0.0^2,^4]nona-1(6),8-dien-7-yl]acetamide], the pEC50 was 10.60.

Turning to `Cc1cc(C2CCC(F)(F)CC2)nc2nc([C@H](Cc3cc(F)cc(F)c3)NC(=O)Cn3nc(C(F)(F)F)c4c3C[C@@H]3C[C@H]43)n(-c3ccc(Cl)c4c(NS(C)(=O)=O)nn(CCN5CC(C)(C)OC(C)(C)C5)c34)c(=O)c12` (atropisomer, axis not shown; (P)) [Example 612, N-[(1S)-1-[(3P)-3-{4-chloro-3-methanesulfonamido-1-[2-(2,2,6,6-tetramethylmorpholin-4-yl)ethyl]-1H-indazol-7-yl}-7-(4,4-difluorocyclohexyl)-5-methyl-4-oxo-3H,4H-pyrido[2,3-d]pyrimidin-2-yl]-2-(3,5-difluorophenyl)ethyl]-2-[(2S,4S)-9-(trifluoromethyl)-7,8-diazatricyclo[4.3.0.0^2,^4]nona-1(6),8-dien-7-yl]acetamide], the pEC50 was 10.55.

As for `Cc1cc(C2CCC(F)(F)CC2)nc2nc([C@H](Cc3cc(F)cc(F)c3)NC(=O)Cn3nc([C@H]4CC4(F)F)c4c3C[C@H]3C[C@@H]43)n(-c3ccc(Cl)c4c(NS(C)(=O)=O)nn(CCN5CC(C)(C)OC(C)(C)C5)c34)c(=O)c12` (atropisomer, axis not shown; (P)) [Example 613, N-[(1S)-1-[(3P)-3-{4-chloro-3-methanesulfonamido-1-[2-(2,2,6,6-tetramethylmorpholin-4-yl)ethyl]-1H-indazol-7-yl}-7-(4,4-difluorocyclohexyl)-5-methyl-4-oxo-3H,4H-pyrido[2,3-d]pyrimidin-2-yl]-2-(3,5-difluorophenyl)ethyl]-2-[(2R,4R)-9-[(1R)-2,2-difluorocyclopropyl]-7,8-diazatricyclo[4.3.0.0^2,^4]nona-1(6),8-dien-7-yl]acetamide], the pEC50 is 10.82.

With `COCCCn1nc(NS(C)(=O)=O)c2c(Cl)ccc(-n3c([C@H](Cc4cc(F)cc(F)c4)NC(=O)Cn4nc(C(F)F)c5c4C(F)(F)[C@@H]4C[C@H]54)nc4nc(C5(CCN6C[C@H](F)C[C@H](F)C6)CCC(F)(F)CC5)cc(C)c4c3=O)c21` (atropisomer, axis not shown; (P)) [Example 615], the negative-log EC50 (pEC50) was 10.57.

As to `CS(=O)(=O)Nc1nn(CCN2C[C@H](F)C[C@H](F)C2)c2c(-n3c([C@H](Cc4cc(F)cc(F)c4)NC(=O)Cn4nc(C(F)F)c5c4C(F)(F)[C@@H]4C[C@H]54)nc4nc(C5CCC(F)(F)CC5)cc(CN5CC(F)(F)C5)c4c3=O)ccc(Cl)c12` (atropisomer, axis not shown; (P)) [Example 620, N-[(1S)-1-[(3P)-3-(4-chloro-1-{2-[(3R,5S)-3,5-difluoropiperidin-1-yl]ethyl}-3-methanesulfonamido-1H-indazol-7-yl)-5-[(3,3-difluoroazetidin-1-yl)methyl]-7-(4,4-difluorocyclohexyl)-4-oxo-3H,4H-pyrido[2,3-d]pyrimidin-2-yl]-2-(3,5-difluorophenyl)ethyl]-2-[(2S,4R)-9-(difluoromethyl)-5,5-difluoro-7,8-diazatricyclo[4.3.0.0^2,]nona-1(6),8-dien-7-yl]acetamide], the pEC50 was 11.15.

With `CC1(C)CN(CCn2nc(NS(C)(=O)=O)c3c(Cl)ccc(-n4c([C@H](Cc5cc(F)cc(F)c5)NC(=O)Cn5nc(C(F)F)c6c5C(F)(F)[C@@H]5C[C@H]65)nc5nc(C6CCC(F)(F)CC6)cc(CN6CC(F)(F)C6)c5c4=O)c32)CC(C)(C)O1` (atropisomer, axis not shown; (P)) [Example 621, N-[(1S)-1-[(3P)-3-{4-chloro-3-methanesulfonamido-1-[2-(2,2,6,6-tetramethylmorpholin-4-yl)ethyl]-1H-indazol-7-yl}-5-[(3,3-difluoroazetidin-1-yl)methyl]-7-(4,4-difluorocyclohexyl)-4-oxo-3H,4H-pyrido[2,3-d]pyrimidin-2-yl]-2-(3,5-difluorophenyl)ethyl]-2-[(2S,4R)-9-(difluoromethyl)-5,5-difluoro-7,8-diazatricyclo[4.3.0.0^2,4]nona-1(6),8-dien-7-yl]acetamide], the pEC50 is 11.30.
